In the assay the test system is CD2F1 mice, L1210 leukemia ip, survival T/C. Nature of the assay: NCI In Vivo Anticancer Drug Screen. Data for tumor model L1210 Leukemia (intraperitoneal) in CD2F1 (CDF1) mice. The conditions noted are these: higher = longer survival. Summed up:
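Ratio T/C, where T is the treated-group value and C the vehicle-dosed control value, from mice implanted with a transplantable tumor.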

The mark [1] stands for this setting: endpoint: mean survival time, dose: 100.0 mg/kg/injection, schedule: Q01DX001 (ip), vehicle: saline.
Setting [2] is: endpoint: mean survival time, dose: 200.0 mg/kg/injection, schedule: Q01DX001 (ip), vehicle: saline.
Where [3] appears, read: endpoint: mean survival time, dose: 400.0 mg/kg/injection, schedule: Q01DX001 (ip), vehicle: saline.
Where [4] appears, read: endpoint: mean survival time, dose: 100.0 mg/kg/injection, schedule: Q04DX002 (ip), vehicle: saline with Tween-80.
The mark [5] stands for this setting: endpoint: mean survival time, dose: 200.0 mg/kg/injection, schedule: Q04DX002 (ip), vehicle: saline with Tween-80.
The mark [6] stands for this setting: endpoint: mean survival time, dose: 400.0 mg/kg/injection, schedule: Q04DX002 (ip), vehicle: saline with Tween-80.
The mark [7] stands for this setting: endpoint: mean survival time, dose: 100.0 mg/kg/injection, schedule: Q04DX003 (ip), vehicle: saline with Tween-80.
[8] abbreviates: endpoint: mean survival time, dose: 200.0 mg/kg/injection, schedule: Q04DX003 (ip), vehicle: saline with Tween-80.
The mark [9] stands for this setting: endpoint: mean survival time, dose: 400.0 mg/kg/injection, schedule: Q04DX003 (ip), vehicle: saline with Tween-80.
Setting [10] is: endpoint: mean survival time, dose: 25.0 mg/kg/injection, schedule: Q01DX009 (ip), vehicle: saline.
The mark [11] stands for this setting: endpoint: mean survival time, dose: 50.0 mg/kg/injection, schedule: Q01DX009 (ip), vehicle: saline.
The mark [12] stands for this setting: endpoint: mean survival time, dose: 50.0 mg/kg/injection, schedule: Q01DX009 (ip), vehicle: saline with Tween-80.
Where [13] appears, read: endpoint: mean survival time, dose: 100.0 mg/kg/injection, schedule: Q01DX009 (ip), vehicle: saline with Tween-80.
The mark [14] stands for this setting: endpoint: mean survival time, dose: 200.0 mg/kg/injection, schedule: Q01DX009 (ip), vehicle: saline with Tween-80.

Experimental findings from PubChem BioAssay AID256 (DTP/NCI, 2004) are described below.

Values joined by “and” are separate entries in the source; they are usually repeats but may differ in a detail not shown here. Equal entries are not always repeated. Inconclusive results and toxic doses are left out.

In the case of `CN(C)P(=O)(OCCCOCc1ccccc1)N(CCCl)CCCl` (configuration not stated), the T/C is, setting by setting: (endpoint: mean survival time, dose: 25.0 mg/kg/injection, schedule: Q01DX001 (ip), vehicle: other) 93 % of control; (endpoint: mean survival time, dose: 50.0 mg/kg/injection, schedule: Q01DX001 (ip), vehicle: other) 101 % of control; (endpoint: mean survival time, dose: 100.0 mg/kg/injection, schedule: Q01DX001 (ip), vehicle: other) 91 % of control; (endpoint: mean survival time, dose: 200.0 mg/kg/injection, schedule: Q01DX001 (ip), vehicle: other) 90 % of control; (endpoint: mean survival time, dose: 400.0 mg/kg/injection, schedule: Q01DX001 (ip), vehicle: other) 87 % of control.
As for `O=C1/C(=C/c2ccc([N+](=O)[O-])cc2)CCc2ccccc21`, the T/C is 97 % of control (endpoint: mean survival time, dose: 12.5 mg/kg/injection, schedule: Q01DX009 (ip), vehicle: Klucel (hydroxypropylcellulose) (HPC)); 96 % of control (endpoint: mean survival time, dose: 25.0 mg/kg/injection, schedule: Q01DX009 (ip), vehicle: Klucel (hydroxypropylcellulose) (HPC)); 94 % of control (endpoint: mean survival time, dose: 50.0 mg/kg/injection, schedule: Q01DX009 (ip), vehicle: Klucel (hydroxypropylcellulose) (HPC)); 92 % of control (endpoint: mean survival time, dose: 100.0 mg/kg/injection, schedule: Q01DX009 (ip), vehicle: Klucel (hydroxypropylcellulose) (HPC)); 91 % of control (endpoint: mean survival time, dose: 200.0 mg/kg/injection, schedule: Q01DX009 (ip), vehicle: Klucel (hydroxypropylcellulose) (HPC)).
On to `O=[As](O)(CC(O)c1ccccc1)c1cccc(Cl)c1` (configuration not stated), for which the T/C (endpoint: mean survival time, dose: 6.25 mg/kg/injection, schedule: Q04DX003 (ip), vehicle: saline with Tween-80) is 104 % of control and the T/C (endpoint: mean survival time, dose: 12.5 mg/kg/injection, schedule: Q04DX003 (ip), vehicle: saline with Tween-80) was 119 % of control.
With `Nc1ncnc2c1c1c(=O)[nH]nnc1n2C1OC(CO)C(O)C1O` (configuration not stated), the T/C (endpoint: mean survival time, dose: 3.13 mg/kg/injection, schedule: Q01DX005 (ip), vehicle: water) was 101 % of control; the T/C (endpoint: mean survival time, dose: 6.25 mg/kg/injection, schedule: Q01DX005 (ip), vehicle: water) was 103 % of control; the T/C (endpoint: mean survival time, dose: 12.5 mg/kg/injection, schedule: Q01DX005 (ip), vehicle: water) is 92 % of control; the T/C (endpoint: mean survival time, dose: 12.5 mg/kg/injection, schedule: Q01DX009 (ip), vehicle: distilled water + Tween-80) is 113 % of control; the T/C (endpoint: mean survival time, dose: 25.0 mg/kg/injection, schedule: Q01DX005 (ip), vehicle: water) was 107 % of control; the T/C (endpoint: mean survival time, dose: 25.0 mg/kg/injection, schedule: Q01DX009 (ip), vehicle: distilled water + Tween-80) was 122 % of control. In addition, the T/C is, setting by setting: (endpoint: mean survival time, dose: 50.0 mg/kg/injection, schedule: Q01DX005 (ip), vehicle: water) 105 % of control; (endpoint: mean survival time, dose: 50.0 mg/kg/injection, schedule: Q01DX009 (ip), vehicle: distilled water + Tween-80) 122 % of control; (endpoint: mean survival time, dose: 100.0 mg/kg/injection, schedule: Q01DX005 (ip), vehicle: water) 107 % of control.
Turning to `CCCN(CCC)S(=O)(=O)c1ccc(NC(=O)Oc2ccc([N+](=O)[O-])cc2)cc1`, the T/C by setting is: under setting [1], 94 % of control; under setting [2], 100 % of control; under setting [3], 95 % of control.
In the case of `O=C(O)CCCCc1ccc([N+](=O)[O-])cc1`, the T/C by setting is: (endpoint: mean survival time, dose: 100.0 mg/kg/injection, schedule: Q04DX002 (ip), vehicle: other) 105 % of control; (endpoint: mean survival time, dose: 200.0 mg/kg/injection, schedule: Q04DX002 (ip), vehicle: other) 102 % of control; (endpoint: mean survival time, dose: 400.0 mg/kg/injection, schedule: Q04DX002 (ip), vehicle: other) 97 % of control.
In the case of `COS(=O)(=O)C=C(c1ccccc1)c1ccccc1`, the T/C (endpoint: mean survival time, dose: 75.0 mg/kg/injection, schedule: Q01DX009 (ip), vehicle: saline) is 103 % of control; the T/C (endpoint: mean survival time, dose: 75.0 mg/kg/injection, schedule: Q04DX003 (ip), vehicle: saline) is 91 % of control; the T/C (endpoint: mean survival time, dose: 150.0 mg/kg/injection, schedule: Q01DX009 (ip), vehicle: saline) was 100 % of control; the T/C (endpoint: mean survival time, dose: 150.0 mg/kg/injection, schedule: Q04DX003 (ip), vehicle: saline) was 94 % of control; the T/C (endpoint: mean survival time, dose: 300.0 mg/kg/injection, schedule: Q01DX009 (ip), vehicle: saline) was 100 % of control; the T/C (endpoint: mean survival time, dose: 300.0 mg/kg/injection, schedule: Q04DX003 (ip), vehicle: saline) was 91 % of control.
As for `O=C(Nc1ccc(F)cc1)Nc1ccc(F)cc1`, the T/C runs as follows: under setting [4], 94 % of control; under setting [5], 87 % of control.
Turning to `CN(Cc1cnc(N)c(C#N)n1)c1ccc(C(=O)NC(CCC(=O)OC(C)(C)C)C(=O)OC(C)(C)C)cc1` (configuration not stated), the T/C reads like this: under setting [4], 91 % of control; under setting [5], 91 % of control; under setting [6], 102 % of control.
Take `O=C(O)COc1ccc(F)cc1Br`: the T/C is 93 % of control under setting [4], 93 % of control under setting [5] and 93 % of control under setting [6].
Take `O=C(O)Cc1ccccc1C(=O)O.[NH-]C1CCCCC1[NH-].[Pt+2]`: the T/C (endpoint: median survival time, dose: 3.12 mg/kg/injection, schedule: Q04DX003 (ip), vehicle: saline) is 102 % of control and 108 % of control; the T/C (endpoint: median survival time, dose: 6.25 mg/kg/injection, schedule: Q04DX003 (ip), vehicle: saline) was 103 % of control and 108 % of control; the T/C (endpoint: median survival time, dose: 12.5 mg/kg/injection, schedule: Q04DX003 (ip), vehicle: saline) was 109 % of control and 110 % of control; the T/C (endpoint: median survival time, dose: 25.0 mg/kg/injection, schedule: Q04DX003 (ip), vehicle: saline) is 105 % of control and 109 % of control; the T/C (endpoint: median survival time, dose: 50.0 mg/kg/injection, schedule: Q04DX003 (ip), vehicle: saline) is 117 % of control and 112 % of control.
Regarding `CCCN(CCC)S(=O)(=O)c1ccc(NC(=O)OC(CC)c2ccco2)cc1` (configuration not stated), the T/C was 94 % of control under setting [1], 95 % of control under setting [2] and 94 % of control under setting [3].
As for `CCOC(=O)/C(C)=C(/N)c1ccccc1`, the T/C is 98 % of control under setting [7], 95 % of control under setting [8] and 92 % of control under setting [9].
In the case of `CC(C#N)C(N)=O` (configuration not stated), the T/C runs as follows: (endpoint: mean survival time, dose: 12.5 mg/kg/injection, schedule: Q01DX009 (ip), vehicle: saline) 98 % of control; under setting [10], 101 % of control; under setting [11], 102 % of control.
With `CCCC/C=C\C(=O)O`, the T/C is 102 % of control under setting [12], 102 % of control under setting [13] and 98 % of control under setting [14].
On to `CC(=O)Oc1c(C)[nH]ccc1=O`, for which the T/C is 97 % of control (endpoint: mean survival time, dose: 25.0 mg/kg/injection, schedule: Q01DX009 (ip), vehicle: saline with Tween-80); 100 % of control under setting [10]; 113 % of control and 107 % of control under setting [12]; 100 % of control under setting [11]; 118 % of control and 122 % of control under setting [13]; 111 % of control (endpoint: mean survival time, dose: 100.0 mg/kg/injection, schedule: Q01DX009 (ip), vehicle: saline). In addition, the T/C was 150 % of control under setting [14]; 122 % of control (endpoint: mean survival time, dose: 200.0 mg/kg/injection, schedule: Q01DX009 (ip), vehicle: saline); 157 % of control (endpoint: mean survival time, dose: 400.0 mg/kg/injection, schedule: Q01DX009 (ip), vehicle: saline with Tween-80).
On to `COc1cc2cccnc2c2[nH]cc(C(=O)O)c(=O)c12`, for which the T/C reads like this: under setting [1], 107 % of control; under setting [13], 97 % of control; under setting [2], 100 % of control; under setting [3], 97 % of control.
On to `CCOc1ccccc1OC(=O)Nc1ccccc1OC`, for which the T/C by setting is: under setting [4], 106 % of control; under setting [5], 88 % of control; under setting [6], 100 % of control.
With `BrC1CCCCCCC1`, the T/C by setting is: under setting [7], 92 % of control; under setting [8], 98 % of control; under setting [9], 95 % of control.
